Source: PubChem BioAssay (NCI)
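Grown in 96-well plates, cells were treated for 48 hours with each compound at five concentrations. Insufficient inhibition: endpoint recorded as highest concentration tested. The concentration for 50% growth inhibition is given as GI50. The concentration for full growth arrest is given as TGI.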

Experiments:
Assay in all cases: NCI anticancer screen, dose series, 48 h
[1] = test system: HL-60(TB) leukemia
[2] = test system: HOP-62 NSCLC
[3] = test system: A498 renal
[4] = test system: SK-OV-3 ovarian
[5] = test system: NCI-H23 lung
[6] = test system: OVCAR-5 ovarian
[7] = test system: SNB-19 CNS
[8] = test system: HS 578T breast
[9] = test system: M14 melanoma
[10] = test system: PC-3 prostate
[11] = test system: HCT-15 colon
[12] = test system: MDA-MB-231 breast
[13] = test system: HCT-116 colon
[14] = test system: SF-295 CNS
[15] = test system: UACC-257 melanoma
[16] = test system: BT-549 breast
[17] = test system: SF-539 CNS
[18] = test system: RPMI-8226 leukemia
[19] = test system: T-47D breast
[20] = test system: MOLT-4 leukemia
[21] = test system: EKVX NSCLC
[22] = test system: SK-MEL-28 melanoma
[23] = test system: MCF7 breast
[24] = test system: LOX IMVI melanoma
[25] = test system: ACHN renal
[26] = test system: SNB-75 CNS
[27] = test system: IGROV1 ovarian
[28] = test system: KM12 colon
[29] = test system: SN12C renal
[30] = test system: UO-31 renal
[31] = test system: NCI-H522 lung
[32] = test system: NCI-H226 lung
[33] = test system: NCI/ADR-RES ovarian
[34] = test system: SW-620 colon
[35] = test system: MDA-MB-435
[36] = test system: CCRF-CEM leukemia
[37] = test system: HOP-92 NSCLC
[38] = test system: U251 CNS
[39] = test system: DU-145 prostate
[40] = test system: OVCAR-4 ovarian
[41] = test system: HCC-2998 colon
[42] = test system: A549 NSCLC
[43] = test system: OVCAR-8 ovarian
[44] = test system: MALME-3M melanoma
[45] = test system: SR leukemia
[46] = test system: TK-10 renal
[47] = test system: SK-MEL-5 melanoma
[48] = test system: NCI-H460 lung
[49] = test system: 786-0 renal
[50] = test system: UACC-62 melanoma
[51] = test system: RXF 393 renal
[52] = test system: SK-MEL-2 melanoma
[53] = test system: COLO 205 colon
[54] = test system: SF-268 CNS
[55] = test system: OVCAR-3 ovarian
[56] = test system: HT29 colon

## CN1C[C@@H](c2ccc(Cl)cc2)[C@]2(NC(=S)N(c3ccc(F)c(Cl)c3)C2=O)[C@@]12C(=O)NC1C=CC(Cl)=C[C@H]12 (some centres not stated)
[1]
  GI50: 2.48 µM
  TGI: 6.02 µM
[2]
  GI50: 3.14 µM
  TGI: 12.7 µM
[3]
  GI50: 2.74 µM
  TGI: 10.1 µM
[4]
  GI50: 3.09 µM
  TGI: 10.4 µM
[5]
  GI50: 2.66 µM
  TGI: 10.1 µM
[6]
  GI50: 2.36 µM
  TGI: 6.14 µM
[7]
  GI50: 3.17 µM
  TGI: 14.4 µM
[8]
  GI50: 2.96 µM
  TGI: 16.7 µM
[9]
  GI50: 2.95 µM
  TGI: 10.6 µM
[10]
  GI50: 2.25 µM
  TGI: 6.42 µM
[11]
  GI50: 3 µM
  TGI: 10.3 µM
[12]
  GI50: 1.88 µM
  TGI: 4.27 µM
[13]
  GI50: 3.12 µM
  TGI: 10.2 µM
[14]
  GI50: 1.89 µM
  TGI: 4.46 µM
[15]
  GI50: 3.48 µM
  TGI: 14.1 µM
[16]
  GI50: 4.62 µM
  TGI: 17.1 µM
[17]
  GI50: 3.29 µM
  TGI: 12.2 µM
[18]
  GI50: 2.72 µM
  TGI: 7.06 µM
[19]
  GI50: 2.85 µM
  TGI: 13.6 µM
[20]
  GI50: 2.87 µM
  TGI: 14.6 µM
[21]
  GI50: 2.72 µM
  TGI: 20.3 µM
[22]
  GI50: 3.61 µM
  TGI: 12.9 µM
[23]
  GI50: 2.82 µM
  TGI: 12 µM
[24]
  GI50: 1.7 µM
  TGI: 3.33 µM
[25]
  GI50: 3.07 µM
  TGI: 10.6 µM
[26]
  GI50: 1.87 µM
  TGI: 9.92 µM
[27]
  GI50: 3.12 µM
  TGI: 14.6 µM
[28]
  GI50: 2 µM
  TGI: 4.92 µM
[29]
  GI50: 1.86 µM
  TGI: 3.74 µM
[30]
  GI50: 1.6 µM
  TGI: 3.86 µM
[31]
  GI50: 2.84 µM
  TGI: 10.9 µM
[32]
  GI50: 1.82 µM
  TGI: 4.72 µM
[33]
  GI50: 2.54 µM
  TGI: 8.97 µM
[34]
  GI50: 3.19 µM
  TGI: 13.1 µM
[35]
  GI50: 3.02 µM
  TGI: 11.2 µM
[36]
  GI50: 4.13 µM
  TGI: 18.6 µM
[37]
  GI50: 2.49 µM
  TGI: 7.13 µM
[38]
  GI50: 2.01 µM
  TGI: 4.71 µM
[39]
  GI50: 3.35 µM
  TGI: 12.6 µM
[40]
  GI50: 3.75 µM
  TGI: 18.6 µM
[41]
  GI50: 3.85 µM
  TGI: 13.8 µM
[42]
  GI50: 3.34 µM
  TGI: 12.3 µM
[43]
  GI50: 2.78 µM
  TGI: 8.6 µM
[44]
  GI50: 2.81 µM
  TGI: 9.09 µM
[45]
  GI50: 2.79 µM
  TGI: 7.18 µM
[46]
  GI50: 3.48 µM
  TGI: 8.06 µM
[47]
  GI50: 1.97 µM
  TGI: 4.21 µM
[48]
  GI50: 2.44 µM
  TGI: 6.09 µM
[49]
  GI50: 2.08 µM
  TGI: 4.82 µM
[50]
  GI50: 3.11 µM
  TGI: 12.3 µM
[51]
  GI50: 1.88 µM
  TGI: 3.73 µM
[52]
  GI50: 3.08 µM
  TGI: 10.3 µM
[53]
  GI50: 1.75 µM
  TGI: 3.46 µM
[54]
  GI50: 2.89 µM
  TGI: 11.2 µM
[55]
  GI50: 2.12 µM
  TGI: 4.75 µM
[56]
  GI50: 2.1 µM
  TGI: 4.24 µM
